Results from PubChem BioAssay (NCI).
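Cells were grown in 96-well plates and exposed to each compound for 48 hours at five concentrations; endpoints were interpolated linearly between bracketing concentrations, or set to the highest concentration if not reached. TGI: total growth inhibition.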

Columns and labels:
Assay in all cases: NCI-60 cell line screen, 48 h
HCC-2998 colon = system: HCC-2998 colon
HOP-92 NSCLC = system: HOP-92 NSCLC
DU-145 prostate = system: DU-145 prostate
SK-MEL-2 melanoma = system: SK-MEL-2 melanoma
786-0 renal = system: 786-0 renal
SK-OV-3 ovarian = system: SK-OV-3 ovarian
SNB-19 CNS = system: SNB-19 CNS
MOLT-4 leukemia = system: MOLT-4 leukemia
SK-MEL-5 melanoma = system: SK-MEL-5 melanoma
MDA-N = system: MDA-N
OVCAR-8 ovarian = system: OVCAR-8 ovarian
MDA-MB-231 breast = system: MDA-MB-231 breast
NCI-H460 lung = system: NCI-H460 lung
CAKI-1 renal = system: CAKI-1 renal
HOP-62 NSCLC = system: HOP-62 NSCLC
SR leukemia = system: SR leukemia
RXF 393 renal = system: RXF 393 renal
SF-539 CNS = system: SF-539 CNS

| Structure (SMILES) | TGI (HCC-2998 colon) | TGI (HOP-92 NSCLC) | TGI (DU-145 prostate) | TGI (SK-MEL-2 melanoma) | TGI (786-0 renal) | TGI (SK-OV-3 ovarian) | TGI (SNB-19 CNS) | TGI (MOLT-4 leukemia) | TGI (SK-MEL-5 melanoma) | TGI (MDA-N) | TGI (OVCAR-8 ovarian) | TGI (MDA-MB-231 breast) | TGI (NCI-H460 lung) | TGI (CAKI-1 renal) | TGI (HOP-62 NSCLC) | TGI (SR leukemia) | TGI (RXF 393 renal) | TGI (SF-539 CNS) |
| --- | --- | --- | --- | --- | --- | --- | --- | --- | --- | --- | --- | --- | --- | --- | --- | --- | --- | --- |
| C#C[C@]1(O)CC[C@H]2[C@@H]3CCC4=C/C(=N/OCCN(C)C)CC[C@]4(C)[C@H]3CC[C@@]21C | > 100 µM | > 100 µM | > 100 µM | > 100 µM | > 100 µM | > 100 µM | > 100 µM | > 100 µM | 78.3 µM | 35.1 µM | > 100 µM | > 100 µM | > 100 µM | > 100 µM | > 100 µM | 67.5 µM |  |  |
| O=C1/C(=C\Oc2ccc(F)cc2)N2CCC1CC2 |  | > 100 µM | 36.7 µM | > 100 µM | > 100 µM | > 100 µM | > 100 µM | > 100 µM | > 100 µM | > 100 µM | > 100 µM | > 100 µM |  | > 100 µM | > 100 µM | 63.1 µM | > 100 µM | > 100 µM |
| COc1ccc(C2N(c3ccc(F)cc3)C(=O)N3C(c4ccc(OC)cc4)N(c4ccc(F)cc4)C(=O)N23)cc1 (stereo unspecified) |  | > 100 µM | > 100 µM | > 100 µM | > 100 µM |  | > 100 µM |  | > 100 µM | > 100 µM | > 100 µM | > 100 µM | > 100 µM | > 100 µM | > 100 µM | > 100 µM | > 100 µM | > 100 µM |
| Oc1ccc(O)c(CNc2ccc(C(O)C(F)(F)F)cc2)c1 (stereo unspecified) |  | 27.7 µM | 28.5 µM | 88 µM | 29 µM | > 100 µM | > 100 µM | 29.7 µM | 76.2 µM | 25.9 µM | > 100 µM | 33.7 µM | 47.3 µM | 29.7 µM | 43 µM | 83.6 µM | 26.7 µM | 21.1 µM |
| O=C1C[C@H](c2ccccc2)O[C@@H](c2ccccc2)C1 | > 100 µM | > 100 µM | > 100 µM | > 100 µM | > 100 µM | > 100 µM | > 100 µM | > 100 µM | > 100 µM | > 100 µM | > 100 µM | > 100 µM | > 100 µM | > 100 µM | > 100 µM |  | > 100 µM | > 100 µM |
| Cc1nc(N)c(N2CCN(C(=O)O)CC2)c(=O)[nH]1 | > 100 µM | > 100 µM | > 100 µM | > 100 µM | > 100 µM |  | > 100 µM | > 100 µM |  | > 100 µM | > 100 µM | > 100 µM | > 100 µM |  | > 100 µM | > 100 µM |  | > 100 µM |
| CC(Nc1ncc2c(n1)-c1ccccc1OC2)C(=O)O (stereo unspecified) |  | > 100 µM | > 100 µM | > 100 µM | > 100 µM | > 100 µM | > 100 µM | > 100 µM | > 100 µM | > 100 µM | > 100 µM | > 100 µM | > 100 µM | > 100 µM | > 100 µM | > 100 µM | > 100 µM | > 100 µM |
| CCc1ccccc1N=NC(=O)NNc1ccccc1CC | 29.9 µM |  | 33.6 µM | 31.7 µM | 31.6 µM |  | 95 µM | 50.1 µM | 28.6 µM | 33.2 µM | 32.8 µM | 50.1 µM | 34.5 µM | 95.2 µM | 29.4 µM | 57.1 µM |  |  |
| O=C(O)CCCC(=O)Nn1c(Cc2ccc(Cl)cc2)n[nH]c1=O |  | > 100 µM | > 100 µM | > 100 µM | > 100 µM | > 100 µM |  | > 100 µM | > 100 µM | > 100 µM | > 100 µM | > 100 µM |  | > 100 µM | > 100 µM | > 100 µM | > 100 µM |  |
| Nc1ccc2c(O)cc(=O)[nH]c2n1 |  | > 100 µM | > 100 µM | > 100 µM | > 100 µM | > 100 µM | > 100 µM | > 100 µM | > 100 µM | > 100 µM | > 100 µM | > 100 µM | > 100 µM | > 100 µM |  | > 100 µM | > 100 µM | > 100 µM |
| CN(C)CCCN1C(=S)N(CCCN(C)C)c2c3ccccc3nc3c([N+](=O)[O-])ccc1c23 | 14.5 µM | 19.5 µM | 19.8 µM | 34.8 µM | 18.2 µM | 50.8 µM | 26 µM | > 100 µM | 18.8 µM | 21.4 µM | 22.5 µM | 24 µM | 18 µM | 19.7 µM | 47 µM |  | 17.8 µM | 23 µM |
| C[C@@H](c1ccccc1)n1c(N)c(-c2ccccn2)c2ccc([N+](=O)[O-])cc2c1=O | > 100 µM | > 100 µM | > 100 µM | > 100 µM | > 100 µM |  | > 100 µM |  | > 100 µM | > 100 µM | > 100 µM | > 100 µM | > 100 µM | > 100 µM |  | > 100 µM |  |  |
